Source: article PMC6629894, “Ruthenium Complexes Containing Heterocyclic Thioamidates Trigger Caspase-Mediated Apoptosis Through MAPK Signaling in Human Hepatocellular Carcinoma Cells” (Frontiers in Oncology, 2019)
“Also recorded” adds a separate entry of the source. Where two headings read alike, the source gives them in different places. Marks after values point to notes of the source that are not given here.

Key:
[1] = test system: K-562 (human chronic myelogenous leukemia); experiment: Alamar blue cytotoxicity assay, 72 h; assay type: cell-based
Description: (§1) The cell lines HepG2 (human hepatocellular carcinoma), HL-60 (human promyelocytic leukemia), K-562 (human chronic myelogenous leukemia), B16-F10 (mouse melanoma), MCF-7 (human breast carcinoma), HCT116 (human colon carcinoma), HSC-3 (human oral squamous cell carcinoma), SCC-4 (human oral squamous cell carcinoma), MRC-5 (human lung fibroblast), WT SV40 MEF (wild-type immortalized mouse embryonic fibroblast), and BAD KO SV40 MEF (BAD gene knockout immortalized mouse embryonic fibroblasts) were obtained from the American Type Culture Collection (ATCC, Manassas, VA, USA). Cells were cultured in RPMI 1640 medium (Gibco-BRL, Gaithersburg, MD, USA) with 10% fetal bovine serum (Life, Carlsbad, CA, USA), 2 mM L-glutamine (Vetec Química Fina, Duque de Caxias, RJ, Brazil) and 50 μg/mL gentamycin (Life). For all experiments, adherent cells were collected by treatment with 0.25% trypsin-EDTA solution (Gibco-BRL). All cell lines were cultured in flasks at 37°C in 5% CO2 and were subcultured every 3–4 days to maintain exponential growth. All cell lines were tested for mycoplasma using a mycoplasma staining kit (Sigma-Aldrich Co.) to validate that the cells that were used were free from contamination.
(§2) Cytotoxicity was measured colorimetrically using an Alamar blue method that was performed as previously described ([20], [21]). Cells were seeded in 96-well plates for all experiments (7 × 10^4 cells/mL for adherent cells or 3 × 10^5 cells/mL for suspension cells in 100 μL of medium) and incubated overnight at 37°C with 5% CO2 to allow for adherence. The complexes were dissolved in 0.5% dimethyl sulfoxide (DMSO, Vetec Química Fina) at eight different concentrations from 0.19 to 25 μg/mL and were added to each well and incubated for 72 h. The negative control was treated with the vehicle (0.5% DMSO) that was used to solubilize and dilute the complexes. […] Four (for cell lines) or 24 h (for PBMCs) before the end of incubation, 20 μL of a stock solution (0.312 mg/mL) of resazurin (Sigma-Aldrich Co.) was added to each well. Absorbance was measured at 570 and 600 nm using a SpectraMax 190 Microplate Reader (Molecular Devices, Sunnyvale, CA, USA).

[2] = test system: HepG2 (human hepatocellular carcinoma); experiment: Alamar blue cytotoxicity assay, 72 h; assay type: cell-based
Description: as §1, §2

B16-F10 (mouse melanoma) = experiment: Alamar blue cytotoxicity assay, 72 h; assay type: cell-based
Description: as §1, §2

[3] = for Differential leukocytes: Eosinophils / Differential leukocytes: Lymphocytes / Differential leukocytes: Monocytes / Differential leukocytes: Neutrophils / Erythrocytes / Total leukocytes: peripheral blood
Procedure: A human hepatocellular carcinoma xenograft model was generated by subcutaneously implanting HepG2 cells (1 × 10^7 cells per 500 μL) into the left front armpit of C.B-17 SCID mice. […] The treatments were initiated one day after the cancer cell injection. The animals were treated intraperitoneally (200 μL per animal) once a day for 21 consecutive days. On the 22nd day, the animals were anesthetized, and peripheral blood samples were collected from the brachial artery. Animals were euthanized by an anesthetic overdose, and tumors were excised and weighed.
To evaluate the toxicological aspects, mice were weighed at the beginning and at the end of the experiment. […] Hematological analysis was performed using an Advia 60 hematology system (Bayer, Leverkusen, Germany).

[4] = test system: BAD KO SV40 MEF (BAD gene knockout immortalized mouse embryonic fibroblasts); experiment: Alamar blue cytotoxicity assay, 72 h; assay type: cell-based; details: read-out: IC50 and 95% CI
calf thymus DNA (ctDNA) = experiment: DNA interaction assay (ethidium bromide displacement); assay type: binding
Procedure: DNA interaction was measured in a cell-free system as previously described ([22]). In this assay, the ability of the complexes to translocate ethidium bromide, a DNA intercalator, from calf thymus DNA (ctDNA, Sigma-Aldrich Co.) was examined. […] […] After a 15 min incubation at room temperature, fluorescence was measured using the excitation and emission wavelengths of 320 and 600 nm, respectively, using a Spectramax Microplate Reader (Molecular Devices).

[5] = test system: WT SV40 MEF (wild-type immortalized mouse embryonic fibroblast); experiment: Alamar blue cytotoxicity assay, 72 h; assay type: cell-based; details: read-out: IC50 and 95% CI
[6] = test system: HepG2 cells engrafted in C.B-17 SCID mice; experiment: Human hepatocellular carcinoma xenograft model; assay type: in vivo; details: for mean tumor mass: 21 days (negative control 0.6 ± 0.1 g)
Procedure: A total of 64 C.B-17 severe-combined immunodeficiency (SCID) mice (females, 25–30 g) were obtained and maintained at the animal facilities from Gonçalo Moniz Institute-FIOCRUZ (Salvador, Bahia, Brazil). Animals were housed in cages with free access to food and water. All animals were kept under a 12:12-h light-dark cycle (lights on at 6:00 a.m.). The animals were treated according to the ethical principles for animal experimentation of SBCAL (Brazilian Association of Laboratory Animal Science), Brazil. The Animal Ethics Committee of Gonçalo Moniz Institute–FIOCRUZ (Salvador, Bahia, Brazil) approved the experimental protocol (number 06/2015). Animal welfare was monitored throughout the study, and the pain and suffering were minimized.

[7] = test system: multicellular spheroids formed from HepG2 cells; experiment: 3D multicellular spheroid culture, Alamar blue, 72 h; assay type: cell-based, human; details: read-out: IC50 and 95% CI, 3D HepG2 spheroids
Procedure: HepG2 cells were cultivated as 3D multicellular spheroids in a 96-well plate with a cell-repellent surface. Briefly, 100 μL of a suspension of cells (5 × 10^5 cells/mL) was seeded into a 96-well plate with a cell-repellent surface (Greiner Bio-One, Kremsmünster, Austria) and cultured in RPMI 1640 medium with 10% fetal bovine serum, 2 mM glutamine plus 3% Matrigel (BD Biosciences, San Jose, CA, EUA) and 50 μg/mL gentamycin at 37°C with 5% CO2. Spheroids with stable structures formed after 3 days. Then, the complexes were dissolved in 0.5% DMSO at eight different concentrations from 0.19 to 25 μg/mL, were added to each well and incubated for 72 h. […] At the end of the experiment, morphological changes were examined by light microscopy (Olympus BX41, Tokyo, Japan) using Image-Pro software (Media Cybernetics, Inc. Silver Spring, USA), and cytotoxicity was quantified with the Alamar blue method as described above.

[8] = 0.5 and 1 mg/kg/day i.p., 21 days

Question: What does the source list for `F[P-](F)(F)(F)(F)F.[Ru+2].[S-]C1=NCCS1.c1ccc(-c2ccccn2)nc1.c1ccc(P(CCCCP(c2ccccc2)c2ccccc2)c2ccccc2)cc1` [Complex 2, [Ru(tzdt)(bipy)(dppb)]PF6]?
Answer: Selectivity index (SI = IC50 [noncancerous cells]/IC50 [cancer cells]) ([1]; MRC-5 vs K-562): 1.8; Selectivity index (SI = IC50 [noncancerous cells]/IC50 [cancer cells]) ([1]; PBMCs vs K-562): 2.9; IC50 ([1]; read-out: IC50 and 95% CI, K-562, 72 h): 900 nM; Selectivity index (SI = IC50 [noncancerous cells]/IC50 [cancer cells]) ([2]; MRC-5 vs HepG2): 0.8; Selectivity index (SI = IC50 [noncancerous cells]/IC50 [cancer cells]) ([2]; PBMCs vs HepG2): 1.4; Selectivity index (SI = IC50 [noncancerous cells]/IC50 [cancer cells]) (B16-F10 (mouse melanoma); MRC-5 vs B16-F10): 1.2; Selectivity index (SI = IC50 [noncancerous cells]/IC50 [cancer cells]) (B16-F10 (mouse melanoma); PBMCs vs B16-F10): 2.0; Initial body weight ([3]; 0.5 mg/kg/day): 20.4 ± 0.4 g; Final body weight ([3]; 0.5 mg/kg/day i.p., 21 days): 20.8 ± 0.4 g; Heart relative weight ([3]; 0.5 mg/kg/day i.p., 21 days): 0.6 ± 0.1 g/100 g body weight; Kidney relative weight ([3]; 0.5 mg/kg/day i.p., 21 days): 1.5 ± 0.1 g/100 g body weight; Liver relative weight ([3]; 0.5 mg/kg/day i.p., 21 days): 4.7 ± 0.2 g/100 g body weight; Lung relative weight ([3]; 0.5 mg/kg/day i.p., 21 days): 0.8 ± 0.1 g/100 g body weight; Survival ([3]; 0.5 mg/kg/day i.p., 21 days): 10/10; Initial body weight ([3]; 1 mg/kg/day): 19.9 ± 0.5 g; Final body weight ([3]; 1 mg/kg/day i.p., 21 days): 19.4 ± 0.5 g; Heart relative weight ([3]; 1 mg/kg/day i.p., 21 days): 0.6 ± 0.1 g/100 g body weight; Kidney relative weight ([3]; 1 mg/kg/day i.p., 21 days): 1.5 ± 0.1 g/100 g body weight; Liver relative weight ([3]; 1 mg/kg/day i.p., 21 days): 4.6 ± 0.1 g/100 g body weight; Lung relative weight ([3]; 1 mg/kg/day i.p., 21 days): 0.8 ± 0.1 g/100 g body weight; Survival ([3]; 1 mg/kg/day i.p., 21 days): 10/10; hepatotoxicity: focal areas of coagulation necrosis in the liver (histology) [3, 8]: more evident; also recorded: evidence of hepatotoxicity; Differential leukocytes: Eosinophils ([3]; 0.5 mg/kg/day, 21 days): 1.3%; Differential leukocytes: Lymphocytes ([3]; 0.5 mg/kg/day, 21 days): 39.9%; Differential leukocytes: Monocytes ([3]; 0.5 mg/kg/day, 21 days): 39.1%; Differential leukocytes: Neutrophils ([3]; 0.5 mg/kg/day, 21 days): 21.1%; Erythrocytes ([3]; 0.5 mg/kg/day, 21 days): 8.5 ± 1.0 10^6cells/μL; Total leukocytes ([3]; 0.5 mg/kg/day, 21 days): 2.5 ± 0.4 10^3cells/μL; Differential leukocytes: Eosinophils ([3]; 1 mg/kg/day, 21 days): 1.1%; Differential leukocytes: Lymphocytes ([3]; 1 mg/kg/day, 21 days): 32.2%; Differential leukocytes: Monocytes ([3]; 1 mg/kg/day, 21 days): 32.5%; Differential leukocytes: Neutrophils ([3]; 1 mg/kg/day, 21 days): 34.4%; Erythrocytes ([3]; 1 mg/kg/day, 21 days): 7.8 ± 0.8 10^6cells/μL; Total leukocytes ([3]; 1 mg/kg/day, 21 days): 2.7 ± 0.4 10^3cells/μL; IC50 [4]: 2900 nM; reduction of the fluorescence intensity (ethidium bromide-ctDNA) vs negative control (calf thymus DNA (ctDNA); 5 μM): 36.9%; reduction of the fluorescence intensity (ethidium bromide-ctDNA) vs negative control (calf thymus DNA (ctDNA); 10 μM): 42.9%; reduction of the fluorescence intensity (ethidium bromide-ctDNA) vs negative control (calf thymus DNA (ctDNA); 20 μM): 45.4%; IC50 [5]: 2000 nM; mean tumor mass ([6]; 0.5 mg/kg/day i.p.): 0.3 ± 0.1 g; fibrosis in tumor histology ([6]; 1 mg/kg/day): most evident fibrosis; mean tumor mass ([6]; 1 mg/kg/day i.p.): 0.2 ± 0.1 g; tumor mass inhibition rates [6, 8]: 46.9–67.7%; IC50 [7]: 7300 nM

Question: Which “Selectivity index (SI = IC50 [noncancerous cells]/IC50 [cancer cells])” value (“Selectivity index” for short) ([1]; MRC-5 vs K-562) does the source give for `COc1cccc2c1C(=O)c1c(O)c3c(c(O)c1C2=O)C[C@@](O)(C(=O)CO)C[C@@H]3O[C@H]1C[C@H](N)[C@H](O)[C@H](C)O1` [Doxorubicin, reference compound] here?
Answer: 0.4

Question: And the “Selectivity index” value ([1]; PBMCs vs K-562)?
Answer: 2.8

Question: And the “Selectivity index” value ([2]; MRC-5 vs HepG2)?
Answer: 1.3

Question: And the “Selectivity index” value ([2]; PBMCs vs HepG2)?
Answer: 8.3

Question: And the “Selectivity index” value (B16-F10 (mouse melanoma); MRC-5 vs B16-F10)?
Answer: 2.0

Question: And the IC50 (B16-F10 (mouse melanoma); Mus musculus, B16-F10, 72 h, read-out: IC50 and 95% CI)?
Answer: 200 nM

Question: And the “Selectivity index” value (B16-F10 (mouse melanoma); PBMCs vs B16-F10)?
Answer: 12.5

Question: And the Initial body weight ([3]; 0.3 mg/kg/day)?
Answer: 22.3 ± 0.4 g

Question: And the Final body weight ([3]; 0.3 mg/kg/day i.p., 21 days)?
Answer: 19.5 ± 0.6 g

Question: And the Heart relative weight ([3]; 0.3 mg/kg/day i.p., 21 days)?
Answer: 0.5 ± 0.02 g/100 g body weight

Question: What about the Kidney relative weight ([3]; 0.3 mg/kg/day i.p., 21 days) of the same compound?
Answer: 1.5 ± 0.04 g/100 g body weight

Question: What about the Liver relative weight ([3]; 0.3 mg/kg/day i.p., 21 days) of the same compound?
Answer: 4.8 ± 0.1 g/100 g body weight

Question: And the Lung relative weight ([3]; 0.3 mg/kg/day i.p., 21 days)?
Answer: 0.9 ± 0.06 g/100 g body weight

Question: What about the “Differential leukocytes: Eosinophils” value ([3]; 0.3 mg/kg/day, 21 days) of the same compound?
Answer: 1.0%

Question: And the “Differential leukocytes: Lymphocytes” value ([3]; 0.3 mg/kg/day, 21 days)?
Answer: 49.3%

Question: What about the “Differential leukocytes: Monocytes” value ([3]; 0.3 mg/kg/day, 21 days) of the same compound?
Answer: 1.0%

Question: What about the “Differential leukocytes: Neutrophils” value ([3]; 0.3 mg/kg/day, 21 days) of the same compound?
Answer: 48.8%

Question: And the Erythrocytes ([3]; 0.3 mg/kg/day, 21 days)?
Answer: 8.9 ± 0.7 10^6cells/μL

Question: What about the Total leukocytes ([3]; 0.3 mg/kg/day, 21 days) of the same compound?
Answer: 1.5 ± 0.2* 10^3cells/μL

Question: And the IC50 ([4]; Mus musculus, Fibroblast)?
Answer: 400 nM

Question: And the “reduction of the fluorescence intensity (ethidium bromide-ctDNA) vs negative control” value (calf thymus DNA (ctDNA); 20 μM)?
Answer: 89.0%

Question: What about the IC50 ([5]; Mus musculus, Fibroblast) of the same compound?
Answer: 40 nM

Question: What about the “reduction of tumor weight vs negative control” value ([6]; 0.3 mg/kg/day i.p., 21 days) of the same compound?
Answer: 36.8%

Question: And the IC50 ([7]; Homo sapiens)?
Answer: 10300 nM
